Where two headings read alike, the source gives them in different places.
Tests used:
[1] = in vivo; conditions: female, rabbit, in vivo, po
How it was run: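 Female New Zealand white rabbits (10-wk, 2.37±0.14kg) got the compound mixture IV via ear-vein catheter or orally into the mouth; serum sampled 15 min to 28 d, 3 (or 6 at 30 min) rabbits per time. Sparse-data noncompartmental analysis gave AUC (linear trapezoidal), CL or CL_F, half-life and F.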

[2] = in vivo; conditions: female, rabbit, in vivo, iv
How it was run: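 Female New Zealand white rabbits received a compound mixture IV via ear-vein catheter; serum sampled sparsely (3 rabbits/time point) from 15 min to 28 d. Noncompartmental sparse-data analysis on mean profiles: linear-trapezoidal AUC, CL as dose/AUC0−inf, half-life from λZ, MRT and VSS.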

[3] = rabbit, in vivo; cited from earlier work
[4] = New Zealand white (INRA 1777 line)
[5] = New Zealand white (INRA 1777 line), Serum concentration
[6] = New Zealand white, Serum concentration

SMILES: Clc1c(Cl)c(Cl)c(Cl)c(Cl)c1Cl [HCB, hexachlorobenzene]
- AUC(0-inf) [1, 4]: 340 µM·h
- CL/F [1, 4]: 1.33 mL/min/kg
- Cmax [1, 4]: 505 nM
- MRT [1, 4]: 46.5 days
- Tmax [1, 4]: 1 days
- Vd/F [1, 4]: 95 L/kg
- bioavailability [1, 4]: 64%
- half-life [1, 4]: 34 days
- Serum concentration ([1]; New Zealand white (INRA 1777 line), 24 h): 370 nM
- concentration at 0.57 h [1, 5]: 66 nM
- concentration at 23.98 h [1, 5]: 370 nM
- concentration at 24 h [1, 5]: 640 nM
- concentration at 168 h [1, 5]: 290 nM
- concentration at 671.96 h [1, 5]: 160 nM
- Serum concentration ([1]; New Zealand white, 72 h): 400 nM
- concentration at 71.96 h [1, 6]: 490 nM
- concentration at 72 h [1, 6]: 220 nM
- concentration at 168 h [1, 6]: 240 nM
- concentration at 168.02 h [1, 6]: 240 nM
- AUC(0-inf) [2, 4]: 4.52 µM·h
- Cmax [2, 4]: 19 nM
- MRT [2, 4]: 23 days
- clearance [2, 4]: 0.85 mL/min/kg
- half-life [2, 4]: 17.2 days
- Vd ([2]; New Zealand white (INRA 1777 line), VSS): 28.1 L/kg
- Vd ([2]; New Zealand white (INRA 1777 line), VZ): 30.5 L/kg
- Serum concentration ([2]; New Zealand white, 24 h): 7.1 nM
- Serum concentration ([2]; New Zealand white, 168 h): 6.4 nM
- concentration at 0.6 h [2, 6]: 11 nM
- concentration at 0.67 h [2, 6]: 19 nM
- concentration at 0.77 h [2, 6]: 15 nM
- concentration at 24 h [2, 6]: 8.2 nM
- concentration at 24.03 h [2, 6]: 6.1 nM
- concentration at 71.97 h [2, 6]: 4.2 nM
- concentration at 72 h [2, 6]: 5.8 nM
- concentration at 72.03 h [2, 6]: 6.5 nM
- concentration at 167.92 h [2, 6]: 4.1 nM
- concentration at 168 h [2, 6]: 5.2 nM
- concentration at 671.83 h [2, 6]: 2.7 nM
- concentration at 671.96 h [2, 6]: 2.3 nM
- half-life [3]: 32 days

— PMC8597046, “Use of Mixture Dosing and Nonlinear Mixed Effect Modeling of Eight Environmental Contaminants in Rabbits to Improve Extrapolation Value of Toxicokinetic Data” (Environmental Health Perspectives, 2021)
